Results reported in article PMC12051620, “Molecular basis underlying the specificity of an antagonist AA92593 for mammalian melanopsins” (The Journal of Biological Chemistry, 2025).

How the values were obtained:
Assay in all cases: GsX GloSensor assay with Gsα/q11
Assay type in all cases: cell-based
[1] = system: human melanopsin W189^ECL2F mutant; conditions: 16.7 μM AA92593, COS-1 cells
Experimental: (§1) Based on the docking and MD simulations of human melanopsin with AA92593, importance of the interactions of Trp-189^ECL2 and Leu-207^5.42 with the antagonist was experimentally examined using the GsX GloSensor assay. To validate the interaction between Trp-189^ECL2 and AA92593, substitutions of W189^ECL2F, W189^ECL2I, or W189^ECL2V in human melanopsin were tested. […] To assess the importance of Leu-207^5.42 in the interaction with AA92593, substitutions L207^5.42V, L207^5.42A, or L207^5.42F in human melanopsin were tested. […] Of note, the L207^5.42F substitution enhanced the sensitivity (∼8%) of human melanopsin to AA92593 (Fig. 5F), although the difference was not statistically significant (Fig. 5H). Dose-dependent curve of reduction in the GsX GloSensor signals of the L207^5.42F was shifted by ∼0.6 μM from the curve of WT (Fig. 5I). The introduction of a Phe residue at position 207^5.42 caused additional interactions between the phenyl ring in Phe-207^5.42 and some functional groups in AA92593. The marked changes in the antagonistic effects of Trp-189^ECL2 and Leu-207^5.42 substitutions are consistent with our molecular simulations, showing that these residues are located at the antagonist-binding site (Fig. 4B).
(§2) For GloSensor assay, opsins, GloSensor assay sensor (coded by pGlo-22F), and NanoBiT-tagged G proteins were transiently expressed in COS-1 cells (kindly provided from Dr David Farrens, Oregon Health and Science University) using PEI as described previously ([24], [52]). For the GsX GloSensor assay ([12], [13]), each well of a 96-well assay plate (Corning) was transfected with 50 ng opsin plasmid, 16.7 ng G protein plasmid, 50 ng pGlo-22F plasmid (Promega), and 500 ng PEI in 25 μl Opti-mem and 75 μl Dulbecco's modified Eagle's medium (D-MEM). For NanoBiT G protein dissociation assay, each well of a 96-well assay plate was transfected with 50 ng opsin plasmid, 5 ng Lg-BiT inserted Gqα (Gqα-LgBiT) plasmid, 25 ng Gβ1 plasmid, 25 ng Sm-BiT fused Gγ2 plasmid, 5 ng RIC8A plasmid, and 500 ng PEI in 25 μl Opti-mem and 75 μl D-MEM. For GFP-fluorescence microscopy, a 35-mm cell culture dish (IWAKI) was transfected with 2 μg melanopsin-GFP plasmid and 8 μg PEI in 400 μl Opti-mem and 1.2 ml D-MEM. For melanopsin purification, ten of 100-mm cell culture dishes (NEST) were transfected with 150 μg melanopsin plasmid and 500 μg PEI in 25 ml Opti mem and 75 ml D-MEM.
(§3) The transfected COS-1 cells were incubated at 37 °C, 5% CO2 for 2 days, and the medium was aspirated and exchanged with 50 μl of HBSS (145 mM NaCl, 10 mM D-glucose, 5 mM KCl, 1 mM MgCl2, 1.7 mM CaCl2, 1.5 mM NaHCO3, 10 mM Hepes, pH 7.4), containing 33.3, 20, 10, 2, 0.2, 0.02, 0.002, or 0 μM AA92593, 0.5% dimetyl sulfoxide (DMSO), and 4% (vol/vol) GloSensor cAMP reagent stock solution. Under our experimental conditions, >50 μM AA92593 was not fully dissolved in the HBSS solution, and we set maximal concentration of AA92593 (Glixx Laboratories) at 33.3 μM (final concentration of 16.7 μM, see below). Then, the cells were incubated at room temperature for 1 h, and luminescence changes were monitored. After incubation of the cells with AA92593, luminescence measurement was interrupted, the plate was ejected, and the cells were added with 50 μl of HBSS containing 0.2 μM 9-cis-retinal. The final exogenous AA92593 concentrations were 16.7, 10, 5, 1, 0.1, 0.01, 0.001, or 0 μM, and retinal concentration was 0.1 μM. Twenty millimolars of stock solution of AA92593 was prepared in DMSO, and final concentration of DMSO was kept at 0.25% regardless final AA92593 concentration. Then, the cells were incubated at room temperature for 1 h. Luminescence was measured using GM-2000 or GM-3510 microplate reader (Promega). Luminescence level of each well was measured every 30 s with integration time of 0.6 to 0.9 s. […]

[2] = molecular target: T1, human melanopsin W189^ECL2I mutant (Homo sapiens, UniProt Q9UHM6, W223I); conditions: 16.7 μM AA92593, COS-1 cells
T1 construct: expressed in transfected cells; host or cells: COS-1
Experimental: as §1, §2, §3

[3] = molecular target: T2, human melanopsin L207^5.42F mutant (Homo sapiens, UniProt Q9UHM6, L239F)
T2 construct: the C-terminal amino acid residues (94, 140, 200, 214, 296, and 308 residues); expressed in transfected cells; host or cells: COS-1
T2 sequence (Q9UHM6 1-384 L239F limits assumed): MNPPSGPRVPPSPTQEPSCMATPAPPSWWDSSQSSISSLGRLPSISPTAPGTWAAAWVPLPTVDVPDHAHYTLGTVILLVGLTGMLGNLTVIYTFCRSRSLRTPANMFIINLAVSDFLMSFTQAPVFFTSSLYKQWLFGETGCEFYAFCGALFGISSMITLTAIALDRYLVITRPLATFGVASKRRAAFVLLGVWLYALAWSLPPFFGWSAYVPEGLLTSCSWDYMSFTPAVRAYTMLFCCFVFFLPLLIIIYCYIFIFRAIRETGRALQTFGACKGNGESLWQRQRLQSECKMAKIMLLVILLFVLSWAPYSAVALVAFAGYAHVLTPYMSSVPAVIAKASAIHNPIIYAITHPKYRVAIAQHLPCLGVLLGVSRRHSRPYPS
Experimental: as §1, §2, §3

[4] = molecular target: T3, human melanopsin W189^ECL2V mutant (Homo sapiens, UniProt Q9UHM6, W223V); conditions: 16.7 μM AA92593, COS-1 cells
T3 construct: expressed in transfected cells; host or cells: COS-1
Experimental: as §1, §2, §3

[5] = system: human melanopsin L207^5.42V mutant; conditions: 16.7 μM AA92593, COS-1 cells
Experimental: as §1, §2, §3

[6] = system: human melanopsin L207^5.42A mutant; conditions: 16.7 μM AA92593, COS-1 cells
Experimental: as §1, §2, §3

[7] = relative peak cAMP response vs no AA92593

T3 sequence (Q9UHM6 1-384 W223V limits assumed): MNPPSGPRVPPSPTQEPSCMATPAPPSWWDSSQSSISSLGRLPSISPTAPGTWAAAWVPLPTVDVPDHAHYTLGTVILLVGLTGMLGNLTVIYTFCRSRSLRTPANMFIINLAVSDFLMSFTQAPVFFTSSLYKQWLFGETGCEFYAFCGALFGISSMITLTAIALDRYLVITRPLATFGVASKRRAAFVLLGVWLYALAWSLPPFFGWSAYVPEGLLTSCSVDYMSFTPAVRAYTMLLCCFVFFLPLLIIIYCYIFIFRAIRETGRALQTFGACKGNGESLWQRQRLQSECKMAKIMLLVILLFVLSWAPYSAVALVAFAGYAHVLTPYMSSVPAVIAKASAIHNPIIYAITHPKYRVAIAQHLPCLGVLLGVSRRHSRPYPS
T1 sequence (Q9UHM6 1-384 W223I limits assumed): as the sequence (Q9UHM6 1-384 W223V limits assumed) above, with V223I counted along it

Which “decrease in sensitivity to AA92593 vs WT” value [1] does the source give for COc1ccc(S(=O)(=O)N2CCCCC2)cc1C [AA92593] here?
The value was about 60%.

And the “inhibitory effect of AA92593 compared to WT” value [2]?
Its value is “significantly weaker”.

And the “Hill fitting parameter rate of dose-response curve” value [3]?
Its value is −0.88 ± 0.29.

What about the “enhanced sensitivity to AA92593 vs WT” value ([3]; 16.7 μM AA92593, COS-1 cells, Gsα/q11, difference not statistically significant) of the same molecule?
The value was about 8%.

And the IC50 ([3]; COS-1 cells, n = 3, read-out: IC50, reduction in peak cAMP responses upon Gsα/q11 activation)?
The IC50 was 350 ± 160 nM.

And the “Hill fitting parameter max of dose-response curve” value [3, 7]?
Its value is 98.88 ± 4.88.

What about the “Hill fitting parameter min of dose-response curve” value [3, 7] of the same molecule?
Its value is 3.15 ± 9.9.

And the “inhibitory effect of AA92593 compared to WT” value [4]?
Its value is “significantly weaker”.

And the “reduced antagonistic effect of AA92593 vs WT” value [5]?
Its value is about 15%.

What about the “reduced antagonistic effect of AA92593 vs WT” value [6] of the same molecule?
The value was about 12%.
